Earlier results, collected in US8277782B2, “Topical oral care compositions comprising host response modulating agents” (The Procter & Gamble Company, priority 2000, dated 2012).

Tested on: alveolar bone
Conditions: non steroidal anti-inflammatory drugs, cyclo-oxygenase inhibitors; prior knowledge

Structure (SMILES): COc1ccc2c(c1)c(CC(=O)O)c(C)n2C(=O)c1ccc(Cl)cc1 [indomethacin]
- resorption of alveolar bone: markedly reduce

Structure (SMILES): CC(C(=O)O)c1ccc(-c2ccccc2)c(F)c1 (centres unmarked) [flurbiprofen]
- resorption of alveolar bone: markedly reduce
